# Where a name gives a salt, the structure may show the parent alone.
# What was measured:
# [1] = target: T1, fibrinogen receptor (GpIIb/IIIa) (Homo sapiens, UniProt P05106+P08514); assay: Human blood platelet fibrinogen binding test; details: inhibition of binding of 125I labelled human fibrinogen to human blood platelet suspension; ADP final concentration 10 µM
# T1 construct: gel filtration using Sepharose 2B column to give a blood platelet suspension; endogenous in cells; host or cells: human blood platelets (gel-filtered, from platelet rich plasma of a healthy donor)
# Method: The precipitate was suspended in a Tyrode's solution (20% fetal bovine serum, 2 mM Mg^2+), followed by gel filtration using Sepharose 2B column to give a blood platelet suspension (1 x 10^9/ml) apart from fibrinogen. […] The binding inhibition rate of the test drug was then calculated.
# [2] = tested on: Blood platelet aggregation; assay: Inhibition test of human in vitro platelet aggregation (ADP-induced); assay type: cell-based
# Method: The blood platelet counts of PRP were adjusted to (50 to 60) x 10^4/µl by diluting with PPP.
# Blood platelet aggregation was determined according to the method of Born G.V.R., [Nature, vol. […] That is, a solution of the compound of Formula (I) as a test drug in dimethyl sulfoxide was adjust to the desired concentration with a physiological saline solution. 25 µl of the solution was added to 250 µl of PRP and incubated at 37°C for 3 minutes, and 25 µl of ADP (final concentration : 7 µM) was added thereto.
# T1 sequence (P08514 32-887 limits assumed): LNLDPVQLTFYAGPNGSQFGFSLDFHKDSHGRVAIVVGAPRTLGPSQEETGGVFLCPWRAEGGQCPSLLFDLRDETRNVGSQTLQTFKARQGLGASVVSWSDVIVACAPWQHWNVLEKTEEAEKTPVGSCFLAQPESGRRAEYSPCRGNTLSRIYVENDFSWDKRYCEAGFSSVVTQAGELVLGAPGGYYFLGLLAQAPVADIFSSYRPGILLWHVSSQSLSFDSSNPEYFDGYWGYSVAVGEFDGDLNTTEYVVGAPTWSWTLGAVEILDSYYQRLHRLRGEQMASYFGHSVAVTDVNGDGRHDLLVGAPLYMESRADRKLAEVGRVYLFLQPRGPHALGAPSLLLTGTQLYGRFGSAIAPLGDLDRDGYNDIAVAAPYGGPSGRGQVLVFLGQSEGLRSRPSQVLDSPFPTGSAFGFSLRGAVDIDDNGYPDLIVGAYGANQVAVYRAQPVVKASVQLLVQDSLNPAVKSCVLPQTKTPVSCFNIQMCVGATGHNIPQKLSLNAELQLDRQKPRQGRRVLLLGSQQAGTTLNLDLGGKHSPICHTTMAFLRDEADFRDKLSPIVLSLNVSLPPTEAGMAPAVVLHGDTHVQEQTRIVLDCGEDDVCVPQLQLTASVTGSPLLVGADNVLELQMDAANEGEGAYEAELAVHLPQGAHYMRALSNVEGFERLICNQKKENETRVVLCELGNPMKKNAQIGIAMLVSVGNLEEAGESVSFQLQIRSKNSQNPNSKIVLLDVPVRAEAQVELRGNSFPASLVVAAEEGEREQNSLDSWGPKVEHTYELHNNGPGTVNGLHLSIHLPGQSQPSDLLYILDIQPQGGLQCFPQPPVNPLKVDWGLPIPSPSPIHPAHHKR
# T1 sequence (P08514 891-1039 partner limits assumed): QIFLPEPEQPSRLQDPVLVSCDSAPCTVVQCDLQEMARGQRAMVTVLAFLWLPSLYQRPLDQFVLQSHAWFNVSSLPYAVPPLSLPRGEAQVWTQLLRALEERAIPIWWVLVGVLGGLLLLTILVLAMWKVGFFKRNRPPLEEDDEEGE
# T1 sequence (P05106 27-788): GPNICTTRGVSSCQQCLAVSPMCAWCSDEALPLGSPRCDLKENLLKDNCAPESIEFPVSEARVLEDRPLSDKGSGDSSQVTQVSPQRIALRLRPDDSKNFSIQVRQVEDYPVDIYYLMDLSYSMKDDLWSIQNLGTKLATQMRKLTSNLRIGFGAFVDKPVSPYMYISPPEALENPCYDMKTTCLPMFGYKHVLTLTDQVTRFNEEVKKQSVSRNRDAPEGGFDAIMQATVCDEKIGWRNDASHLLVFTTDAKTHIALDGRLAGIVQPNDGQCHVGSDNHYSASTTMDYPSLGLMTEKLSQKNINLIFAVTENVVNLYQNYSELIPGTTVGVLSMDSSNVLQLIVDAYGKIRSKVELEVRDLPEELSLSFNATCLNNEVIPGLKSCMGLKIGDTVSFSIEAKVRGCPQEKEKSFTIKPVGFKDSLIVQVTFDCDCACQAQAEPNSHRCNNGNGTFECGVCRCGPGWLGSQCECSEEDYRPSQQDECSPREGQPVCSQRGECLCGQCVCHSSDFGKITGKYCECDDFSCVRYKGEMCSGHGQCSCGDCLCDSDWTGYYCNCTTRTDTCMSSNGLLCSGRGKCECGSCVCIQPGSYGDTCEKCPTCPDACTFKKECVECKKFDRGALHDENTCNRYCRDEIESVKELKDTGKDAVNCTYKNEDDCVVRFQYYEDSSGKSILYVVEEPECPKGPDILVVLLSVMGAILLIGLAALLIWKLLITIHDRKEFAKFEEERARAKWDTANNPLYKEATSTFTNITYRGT
IC50 [1] [µM],"IC50 ([2]; Homo sapiens, Platelet, 0.05 h) [µM]",Molecule,"IC50 ([2]; concentration causing 50% inhibition of the maximum aggregation, human PRP, ADP final concentration 7 µM, incubated at 37°C for 3 minutes) [µM]"
0.0051,0.017,"Cc1c(C(=O)NCCC(=O)O)sc(=NC(=O)c2ccc(C(=N)N)cc2)n1C [Compound 5, N-(2-carboxyethyl)-2-(4-amidinobenzoylimino)-3,4-dimetylthiazoline-5-carboxamide hydrobromide]",
0.0027,,"CNC(=N)c1ccc(C(=O)N=c2sc(C(=O)NCCC(=O)O)c(C)n2C)cc1 [Compound 7, N-(2-carboxyethyl)-2-[4-(N-methylamidino)benzoylimino]-3,4-dimethyl-3H-thiazoline-5-carboxamide hydrobromide]",
,0.019,Cc1c(C(=O)NCCC(=O)O)sc(=NC(=O)c2ccc(C(=N)N)cc2)n1Cc1ccccc1 [Compound 17],
,0.018,CCCCn1c(C)c(C(=O)NCCC(=O)O)sc1=NC(=O)c1ccc(C(=N)N)cc1 [Compound 22],
0.0063,,COC(=O)CCNC(=O)c1sc(=NC(=O)c2ccc(C#N)cc2)n(C(C)C)c1C [Compound 23],
,0.015,Cc1c(C(=O)NCCC(=O)O)sc(=NC(=O)c2ccc(C(=N)N)cc2)n1C(C)C [Compound 27],
0.0079,0.014,Cc1c(C(=O)NCCC(=O)O)sc(=NC(=O)c2ccc(C(=N)NCc3ccccc3)cc2)n1C [Compound 29],
,0.02,"Cc1c(C(=O)NCCC(=O)O)sc(=NC(=O)c2ccc(C(=N)Nc3ccccc3)cc2)n1C [Compound 31, N-(2-carboxyethyl)-2-[4-(N-phenylamidino)benzoylimino]-3,4-dimethyl-3H-thiazoline-5-carboxamide hydrobromide]",
0.001,,"Cc1c(C(=O)NCCC(=O)O)sc(=NC(=O)c2ccc(C(=N)N(C)Cc3ccccc3)cc2)n1C [Compound 35, N-(2-carboxyethyl)-2-[4-(N-methyl-N-benzylamidino)benzoylimino]-3,4-dimethyl-3H-thiazoline-5-carboxamide hydrobromide]",
0.0013,,"Cc1c(C(=O)NCCC(=O)O)sc(=NC(=O)c2ccc(C(=N)N(C)C)cc2)n1C [Compound 37, N-(2-carboxyethyl)-2-[4-(N,N-dimethylamidino)benzoylimino]-3,4-dimethyl-3H-thiazoline-5-carboxamide hydrobromide]",

Molecule,IC50 [1] [µM],"IC50 ([2]; Homo sapiens, Platelet, 0.05 h) [µM]","IC50 ([2]; concentration causing 50% inhibition of the maximum aggregation, human PRP, ADP final concentration 7 µM, incubated at 37°C for 3 minutes) [µM]"
"3-[3-(4-amidinobenzoyl)benzamide]propionic acid [Control, reference compound]",0.0844,,0.105

# — patent EP0649843B1, “THIAZOLINE DERIVATIVE” (TAISHO PHARMACEUTICAL CO. LTD, priority 1992, dated 1994)
